Consider seven compounds from PubChem BioAssay (NCI).

Holding throughout (test): NCI anticancer screen, dose series, 48 h
Experiment [1] deals with CCRF-CEM leukemia.
Experiment [2] concerns SK-MEL-28 melanoma.
The subject of experiment [3] is K-562 leukemia.
The subject of experiment [4] is UACC-257 melanoma.
Experiment [5] has as its system MDA-MB-231 breast.
Experiment [6] relates to A549 NSCLC.
Experiment [7] deals with ACHN renal.
Experiment [8] relates to OVCAR-3 ovarian.
Experiment [9] has as its system NCI/ADR-RES ovarian.
Experiment [10] has as its system BT-549 breast.

“And” between values parts separate entries of the source, which are not always exact repeats. Equal entries are not always repeated.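 96-well plates; 48 h exposure; 5 concentrations. Endpoints by linear interpolation between flanking doses. Not reached: highest tested concentration assigned. GI50: concentration for 50% inhibition of growth. Definition used: TGI = concentration required for complete inhibition of growth.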

For `CN(C)C1CN(C(=O)c2cc(-c3ccc4ncnc(N5CCc6cc(F)c(Cl)cc65)c4c3)cnc2N)C1`, the GI50 in [1] is 583 nM; in experiment [2], 869 nM; in [3], 860 nM; in experiment [4], 1540 nM; in experiment [5], 931 nM; in experiment [6], 486 nM. Also, the GI50 in experiment [7] was 443 nM; in experiment [8], 585 nM; in experiment [9] it was 1710 nM; in [10] it was 436 nM. Moreover, the TGI is over 100000 nM in experiment [1]; over 100000 nM in [2]; over 100000 nM in [3]; over 28100 nM in [4]; over 100000 nM in experiment [5]; over 100000 nM in experiment [6]. Moreover, the TGI in experiment [7] is over 100000 nM; in experiment [8], 5200 nM; in experiment [9] it was over 100000 nM; in [10], 4020 nM.

As to `CCC(C)C1NC(=O)C(NC(=O)C(CC(C)C)N(C)C(=O)[C@@H]2CC(O)CN2C(=O)[C@H](C)O)C(C)OC(=O)[C@H](Cc2ccc(OC)cc2)N(C)C(=O)[C@@H]2CCCN2C(=O)[C@H](CC(C)C)NC(=O)C(C)C(=O)[C@H](C(C)C)OC(=O)CC1O` (stereo partly drawn), the GI50 in experiment [1] was 27.6 nM; in experiment [2], under 10 nM; in [3], 25 nM; in experiment [4], 76.8 nM; in [5] it was 92.6 nM; in [6] it was 27.7 nM. In addition, the values for the GI50 in experiment [7], in experiment [8] and in experiment [10] were 131 nM, 79.3 nM and 25.9 nM, respectively. Also, the TGI in experiment [1] was 280 nM; in experiment [2], 467 nM and 256 nM; in experiment [3] it was 352 nM; in experiment [4] it was 1940 nM and 1850 nM; in experiment [5] it was 991 nM and 3950 nM; in experiment [6], 1910 nM. The TGI in experiment [7] is 8740 nM and 5220 nM; in [8], 1260 nM and 982 nM; in experiment [9] it was over 100000 nM; in [10], 855 nM and 233 nM.

On to `CC1[C@@H]2CC=C3[C@H]4CCC5Cc6nc7c(nc6C[C@@]5(C)C4CC(=O)[C@]32CO[C@]12OC(C)(C)CC2O)CC1CC[C@@H]2C3=C[C@H]4O[C@@]5(O[C@@](C)(CO)C[C@@H]5O)C(C)[C@@]4(O)[C@]3(C)[C@@H](O)CC2[C@]1(C)C7` (stereo partly drawn), for which the GI50 in [1] was 0.309 nM and 0.365 nM; in experiment [2], 0.62 nM; in experiment [3], 0.615 nM and 1.11 nM; in experiment [4], 4.26 nM; in [5] it was 1.21 nM; in [6] it was 0.51 nM and 1.33 nM. For the same compound, the GI50 in experiment [7] was 8.05 nM; in experiment [8] it was 71.3 nM and 498 nM; in experiment [10], 0.751 nM. Also, the TGI in experiment [1] was 11.4 nM and 4.53 nM; in experiment [2] it was 2.73 nM; in experiment [3], 27.8 nM and 31.1 nM; in experiment [4], 21.1 nM; in experiment [5], 284 nM; in experiment [6], 164 nM and 470 nM. In addition, the TGI in experiment [7] was 846 nM; in experiment [8], 620 nM and 3330 nM; in experiment [9], 561 nM and > 3650 nM; in experiment [10] it was 363 nM.

In the case of `O=C(CCN1CCCN(c2cnc3ccccc3n2)CC1)c1csc2ccccc12`, the GI50 in experiment [1] is 12500 nM; in [2] it was 20600 nM; in experiment [3] it was 20000 nM; in experiment [4], 26100 nM; in experiment [5], 21200 nM; in [6] it was over 100000 nM. In addition, the GI50 in [7] was 17900 nM; in experiment [8], 18900 nM; in experiment [9], 21300 nM; in experiment [10], 18400 nM. Besides, the TGI in [1] was 63100 nM; in experiment [2] it was 37100 nM; in experiment [3], 48600 nM; in [4], 63200 nM; in experiment [5], 37000 nM; in [6] it was over 100000 nM. Moreover, the TGI in experiment [7] is 31800 nM; in experiment [8], 32900 nM; in experiment [9] it was 49500 nM; in [10], 32300 nM.

`C=C(Br)COc1ccc2c(C)cc(=O)oc2c1`: the TGI in experiment [1], in experiment [2], in experiment [3], in experiment [4], in experiment [5] and in experiment [6] was over 100000 nM each time. The TGI in experiment [7], in experiment [8], in experiment [9] and in experiment [10] was over 100000 nM in each case.

Take `COc1ccc(/C=C\c2cc(OC)c(OC)c(OC)c2)c(NS(=O)(=O)c2ccc(F)cc2)c1O`: the GI50 in [1] was 43.5 nM; in experiment [2], 484 nM; in experiment [3], 35.3 nM; in experiment [4], 20500 nM; in experiment [5] it was 97.7 nM; in [6] it was 164 nM. Also, the GI50 in experiment [7] is 189 nM; in [8] it was 32.2 nM; in experiment [9] it was 179 nM; in experiment [10] it was 61.9 nM. Moreover, the TGI was over 100000 nM in experiment [1]; over 100000 nM in experiment [2]; over 76000 nM in experiment [3]; over 100000 nM in experiment [4]; 70900 nM in experiment [5]; over 100000 nM in experiment [6]. Moreover, the TGI was determined as 96900 nM in [7], 1410 nM in [8], 3400 nM in [9] and 16800 nM in experiment [10].

Regarding `COc1cc(N2CCC(N)CC2)ccc1Nc1ncc(Cl)c(-c2c[nH]c3ccccc23)n1`, the GI50 in experiment [1] is 2170 nM; in [2], 1310 nM; in experiment [3], 1580 nM; in experiment [4], 1020 nM; in experiment [5] it was 1220 nM; in experiment [6], 248 nM. For the same compound, the GI50 in experiment [7] is 292 nM; in experiment [8] it was 1140 nM; in experiment [9], 1490 nM; in experiment [10], 1560 nM. Besides, the TGI is 7150 nM in experiment [1]; 2640 nM in experiment [2]; 5030 nM in experiment [3]; 2340 nM in experiment [4]; 2790 nM in [5]; 1650 nM in experiment [6]. Further, the TGI stood at 1940 nM in experiment [7], 3710 nM in experiment [8], 4110 nM in experiment [9] and 3390 nM in experiment [10].
